In patent US8263151B2, “Peracid and 2-hydroxy organic acid compositions and methods for treating produce” (Fresh Express, Incorporated, priority 2008, dated 2012):

Tests used:
[1] = electron-Volts; cited from earlier work
E. coli K12 = assay: Attached cells challenge test on leaves (Example 1); type: cell-based; details: PAA 0 ppm
Listeria innocua = assay: as above; type: cell-based; details: PAA 0 ppm
[2] = tested on: indigenous microorganisms (Aerobic Plate Counts); type: cell-based

SMILES: [O][Cl+][O-] [Chlorine Dioxide]
- Oxidation Capacity [1]: 1.57 eV

SMILES: CC(O)C(=O)O (stereo not drawn) [LA, lactic acid]
- log reduction of attached cells (quantity not given) (E. coli K12; Romaine, LA 0.6%): 0.24
- log reduction of attached cells (quantity not given) (E. coli K12; Romaine, LA 0.9%): 0.37
- log reduction of attached cells (quantity not given) (E. coli K12; Spinach, LA 0.6%): 0.09
- log reduction of attached cells (quantity not given) (E. coli K12; Spinach, LA 0.9%): 0.42
- log reduction of attached cells (quantity not given) (E. coli K12; Spinach, LA 1.2%): 0.81
- log reduction of attached cells (quantity not given) (Listeria innocua; Romaine, LA 0.6%): 1.1
- log reduction of attached cells (quantity not given) (Listeria innocua; Romaine, LA 0.9%): 1.4
- log reduction of attached cells (quantity not given) (Listeria innocua; Romaine, LA 1.2%): 1.5
- log reduction of attached cells (quantity not given) (Listeria innocua; Spinach, LA 0.6%): 0.1
- log reduction of attached cells (quantity not given) (Listeria innocua; Spinach, LA 0.9%): 0.2
- log reduction of attached cells (quantity not given) (Listeria innocua; Spinach, LA 1.2%): 0.2

SMILES: O=[O+][O-] [Ozone]
- Oxidation Capacity [1]: 2.07 eV

SMILES: CC(=O)OO [PAA, peroxyacetic acid]
- Oxidation Capacity [1]: 1.81 eV
- Log Reduction of Aerobic Plate Counts vs untreated [2]: 0.7 Log cfu/g
